# Measured values: US8889683B2, “Substituted quinoxalines as inhibitors of fatty acid binding protein” (Merck Sharp & Dohme Corp., priority 2010, dated 2014)
# Molecular target: FABP4 (Homo sapiens, UniProt P15090)
# Assay: TdF-based ligand binding affinity (FABP inhibitory activity assay)
# Details: TdF-based ligand binding affinity constant
# Description: Theoretical basis for TdF-based ligand binding affinity constant
# The derivation of TdF-based ligand binding affinity constant (Kd) followed closely those previously formulated by Brandts and Lin, Biochemistry 29 (1990) 6927-6940. In brief, the binding constant of the ligand at the Tm is expressed as below: […]
# where T0 is the midpoint of unfolding for unliganded protein and Tm is the midpoint of unfolding in presence of ligand. [LTm] is free ligand at Tm. The ΔHu and ΔCpu are the enthalpy of unfolding and heat capacity change of unfolding for the protein respectively. The ΔCPu is proportional to the size of protein and is an approximate quantity in the above equation (empirically, ΔCpu=(MW of protein/115)*14 cal/mol*K). Following algorithm derived by Mayhood et al, (Analytical Biochemistry 345 (2005) 187-197), the T0 and ΔHu can be determined separately from nonlinear regression fitting the temperature dependent protein alone curve to the following equation: […]
# The nonlinear regression fitting in general readily reaches convergence by properly constraining the initial values for the fitting parameters (e.g. the initial “guess” for the ΔHu was constrained to 120 kcal/mol; initial Yn and mr, were set to 1 and zero to best represent the melting curve along the low temperature region; negative slope of −0.5 was initially chosen for mu; initial Tm was also constrained to 50° C.).
# (see Brandts et al and Mayhood et al, shown above) where ΔHL (T) is the van't Hoff enthalpy of ligand binding at temperature T and ΔCpL is the heat capacity upon ligand binding. For simplicity, the ΔCpL and ΔHL (T) were set to zero and −7 kcal/mol respectively. (The ΔCpL accounts for minimal portion of total protein-ligand binding energetics and is therefore set to zero (For example, see Hossein Naghibi et al, Proc. Natl. Acad. Sci. 92, 5597-5599 (1995), where ΔCpL was estimated to ˜2% of ΔHL at 25° C. obtained from calorimetric study of binding RNase A and 2′-CMP)).
# FABP4, sequence (P15090 whole entry): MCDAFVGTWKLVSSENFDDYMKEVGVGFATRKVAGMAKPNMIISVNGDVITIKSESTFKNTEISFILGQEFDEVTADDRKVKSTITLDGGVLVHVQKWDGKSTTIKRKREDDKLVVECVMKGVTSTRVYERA
row,Compound,Kd
1,O=C(c1nc2ccccc2nc1O)N1CCCC1Cc1ccccc1F (stereo not drawn) [Compound 1-153],2900 nM
2,"O=C(c1nc2cc(I)ccc2nc1O)N1CCCC1Cc1cccc(Cl)c1 (racemic) [Compound 1-18, (+/−)-[2-(3-Chlorobenzyl)pyrrolidin-1-yl](3-hydroxy-7-iodoquinoxalin-2-yl)methanone]",630 nM
3,CN(CCc1cccc(Cl)c1)C(=O)c1nc2ccccc2nc1O [Compound 1-156],2700 nM
4,"O=C(c1nc2ccccc2nc1O)N1CCCCC1Cc1cccc(F)c1 (racemic) [Compound 1-74, (+/−)-[2-(3-Fluorobenzyl)piperidin-1-yl](3-hydroxyquinoxalin-2-yl)methanone]",4400 nM
5,"O=C(c1nc2ccccc2nc1O)N1CCCC1Cc1c(F)cccc1Cl (racemic) [Compound 1-52, (+/−)-[2-(2-Chloro-6-fluorobenzyl)pyrrolidin-1-yl](3-hydroxyquinoxalin-2-yl)methanone]",5680 nM
6,"N#Cc1ccc2nc(C(=O)N3CCCC3Cc3cccc(Cl)c3)c(O)nc2c1 (racemic) [Compound 1-31, (+/−)-2-[2-(3-Chlorobenzyl)pyrrolidine-1-carbonyl]-3-hydroxyquinoxaline-6-carbonitrile]",500 nM
7,Cc1ccc(C(C)C)cc1N(C)C(=O)c1nc2ccccc2nc1O [Compound 1-124],11300 nM
8,"Cc1cccc(CC2CCCCCN2C(=O)c2nc3ccccc3nc2O)c1 (racemic) [Compound 1-91, (+/−)-(3-Hydroxyquinoxalin-2-yl)[2-(3-methylbenzyl)azepan-1-yl]methanone]",1840 nM
9,"Cc1ccc(CC2CCCN2C(=O)c2nc3ccccc3nc2O)cc1C (racemic) [Compound 1-42, (+/−)-[2-(3,4-Dimethylbenzyl)pyrrolidin-1-yl](3-hydroxyquinoxalin-2-yl)methanone]",1340 nM
10,"O=C(c1nc2ccccc2nc1O)N1CCCC(Cc2ccccc2)C1 (racemic) [Compound 1-83, (+/−)-(3-Benzylpiperidin-1-yl)(3-hydroxyquinoxalin-2-yl)methanone]",16200 nM
11,"COc1cccc(CC2CCCN(C(=O)c3nc4ccccc4nc3O)C2)c1 (racemic) [Compound 1-85, (+/−)-(3-Hydroxyquinoxalin-2-yl)[3-(3-methoxybenzyl)piperidin-1-yl]methanone]",11000 nM
12,"O=C(c1nc2ccccc2nc1O)N1CCCC1COc1ccc(F)cc1 (racemic) [Compound 1-55, (+/−)-{2-[(4-fluorophenoxy)methyl]pyrrolidin-1-yl}(3-hydroxyquinoxalin-2-yl)methanone]",23000 nM
13,"O=C(c1nc2ccccc2nc1O)N1CCCC1COc1ccc(F)c(Cl)c1 (racemic) [Compound 1-64, (+/−)-{2-[(3-Chloro-4-fluorophenoxy)methyl]pyrrolidin-1-yl}(3-hydroxyquinoxalin-2-yl)methanone]",15100 nM
14,"O=C(c1nc2cc(OC(F)(F)F)ccc2nc1O)N1CCCC1Cc1cccc(Cl)c1 (racemic) [Compound 1-20, (+/−)-[2-(3-Chlorobenzyl)pyrrolidin-1-yl][3-hydroxy-7-(trifluoromethoxy)quinoxalin-2-yl]methanone]",950 nM
15,COc1ccc(CCN(C)C(=O)c2nc3ccccc3nc2O)cc1OC [Compound 1-141],26100 nM
16,"COc1cc2nc(O)c(C(=O)N3CCCC3Cc3cccc(Cl)c3)nc2cc1OC (racemic) [Compound 1-38, (+/−)-[2-(3-Chlorobenzyl)pyrrolidin-1-yl](3-hydroxy-6,7-dimethoxyquinoxalin-2-yl)methanone]",22500 nM
17,"O=C(c1nc2ccccc2nc1O)N1CCCC[C@@H]1Cc1cccc(Cl)c1 [Compound 7-7, (R)-(2-(3-chlorobenzyl)piperidin-1-yl)(3-hydroxyquinoxalin-2-yl)methanone]",8100 nM
18,O=C(c1nc2ccccc2nc1O)N1CCCC1Cc1ccccc1Cl (stereo not drawn) [Compound 1-115],1800 nM
19,CN(Cc1ccccc1)C(=O)c1nc2ccccc2nc1O [Compound 1-98],28400 nM
20,O=C(c1nc2ccccc2nc1O)N1CCCC1Cc1ccc(F)cc1 (stereo not drawn) [Compound 1-158],2000 nM
21,"O=C(c1nc2ccccc2nc1O)N1CCCCCC1Cc1ccc(Cl)cc1 (racemic) [Compound 1-93, (+/−)-[2-(4-Chlorobenzyl)azepan-1-yl](3-hydroxyquinoxalin-2-yl)methanone]",9000 nM
22,CN(Cc1cccc(Cl)c1)C(=O)c1nc2ccccc2nc1O [Compound 1-143],23100 nM
23,"Nc1nc2ccccc2nc1C(=O)N1CCCC1Cc1cccc(Cl)c1 (stereo not drawn) [Compound 5-2, (3-aminoquinoxalin-2-yl)[2-(3-chlorobenzyl)pyrrolidin-1-yl]methanone]",10000 nM
24,"O=C(c1nc2ccccc2nc1O)N1CCCCC1Cc1ccc(F)cc1 (racemic) [Compound 1-79, (+/−)-[2-(4-Fluorobenzyl)piperidin-1-yl](3-hydroxyquinoxalin-2-yl)methanone]",4700 nM
25,"O=C(c1nc2ccccc2nc1O)N1CCC[C@@H]1Cc1cccc(Cl)c1 [Compound 8-9, (R)-(2-(3-chlorobenzyl)pyrrolidin-1-yl)(3-hydroxyquinoxalin-2-yl)methanone]",5000 nM
26,CN(CCc1ccccc1)C(=O)c1nc2ccccc2nc1O [Compound 1-139],12700 nM
27,O=C(c1nc2ccccc2nc1O)N1CCCC1Cc1ccccc1 (stereo not drawn) [Compound 1-116],4600 nM
28,"O=C(c1nc2ccccc2nc1O)N1CCCC(Cc2ccc(F)cc2)C1 (racemic) [Compound 1-88, (+/−)-[3-(4-Fluorobenzyl)piperidin-1-yl](3-hydroxyquinoxalin-2-yl)methanone]",5500 nM

# Compounds with a lower Kd, results first:
row,Kd,Compound
1,460 nM,"O=C(c1nc2ccc(I)cc2nc1O)N1CCCC1Cc1cccc(Cl)c1 (racemic) [Compound 1-19, (+/−)-[2-(3-Chlorobenzyl)pyrrolidin-1-yl](3-hydroxy-6-iodoquinoxalin-2-yl)methanone]"
2,410 nM,"O=C(c1nc2cc(Cl)ccc2nc1O)N1CCCC1Cc1cccc(Cl)c1 (racemic) [Compound 1-9, (+/−)-(7-Chloro-3-hydroxyquinoxalin-2-yl)[2-(3-chlorobenzyl)pyrrolidin-1-yl]methanone]"
3,300 nM,"O=C(c1nc2ncccc2nc1O)N1CCCC1Cc1cccc(Cl)c1 (racemic) [Compound 1-32, (+/−)-[2-(3-Chlorobenzyl)pyrrolidin-1-yl](2-hydroxypyrido[2,3-b]pyrazin-3-yl)methanone]"
4,300 nM,"O=C(c1nc2cc(F)ccc2nc1O)N1CCCC1Cc1cccc(Cl)c1 (racemic) [Compound 1-3, (+/−)-[2-(3-Chlorobenzyl)pyrrolidin-1-yl](7-fluoro-3-hydroxyquinoxalin-2-yl)methanone]"
5,250 nM,"O=C(c1nc2ccc(Cl)cc2nc1O)N1CCCC1Cc1cccc(Cl)c1 (racemic) [Compound 1-10, (+/−)-(6-Chloro-3-hydroxyquinoxalin-2-yl)[2-(3-chlorobenzyl)pyrrolidin-1-yl]methanone]"
6,180 nM,"O=C(c1nc2ccc(F)cc2nc1O)N1CCCC1Cc1cccc(Cl)c1 (racemic) [Compound 1-4, (+/−)-[2-(3-Chlorobenzyl)pyrrolidin-1-yl](6-fluoro-3-hydroxyquinoxalin-2-yl)methanone]"
7,50 nM,"O=C(c1nc2c(F)cc(F)cc2nc1O)N1CCC[C@H]1Cc1cc(Cl)cc(Cl)c1 [9-18, (S)-(2-(3,5-dichlorobenzyl)pyrrolidin-1-yl)(6,8-difluoro-3-hydroxyquinoxalin-2-yl)methanone]"
8,24 nM,"O=C(c1nc2ccc(SC(F)(F)F)cc2nc1O)N1CCCC1Cc1cccc(Cl)c1 (racemic) [Compound 1-23, (+/−)-[2-(3-Chlorobenzyl)pyrrolidin-1-yl][3-hydroxy-6-(trifluoromethylthio]quinoxalin-2-yl)methanone]"
9,24 nM,"O=C(c1nc2cc(SC(F)(F)F)ccc2nc1O)N1CCCC1Cc1cccc(Cl)c1 (racemic) [Compound 1-22, (+/−)-[2-(3-Chlorobenzyl)pyrrolidin-1-yl][3-hydroxy-7-(trifluoromethylthio]quinoxalin-2-yl)methanone]"
10,7 nM,"O=C(c1nc2cc(F)cc(F)c2nc1O)N1CCC[C@H]1Cc1cc(Cl)cc(Cl)c1 [9-16, (S)-(2-(3,5-dichlorobenzyl)pyrrolidin-1-yl)(5,7-difluoro-3-hydroxyquinoxalin-2-yl)methanone]"
11,4 nM,O=C(c1nc2cccc(Cl)c2nc1O)N1CCCC1Cc1ccc(Cl)c(Cl)c1 (stereo not drawn) [Compound 1-162]
12,4 nM,O=C(c1nc2cc(Cl)c(Cl)cc2nc1O)N1CCC[C@H]1Cc1cc(Cl)cc(Cl)c1 [Compound 8-11]
13,2 nM,"O=C(c1nc2cccc(C(F)(F)F)c2nc1O)N1CCCC1Cc1cccc(Cl)c1 (racemic) [Compound 1-30, (+/−)-[2-(3-Chlorobenzyl)pyrrolidin-1-yl][3-hydroxy-5-(trifluoromethyl)quinoxalin-2-yl]methanone]"
14,1.3 nM,O=C(c1nc2cc(F)c(F)cc2nc1O)N1CCC[C@H]1Cc1cc(Cl)cc(Cl)c1 [Compound 8-12]
